Laboratory results as given in publication PMC6508583 (Journal of the American Chemical Society, 2019).
≈ marks a conversion by molar mass, not a printed value. Like-named read-outs stand apart in the source and are kept apart here.

How the values were obtained:
[1] = test system: wild-type bacterial ribosome; test: Cell-free translation assay, wild-type bacterial ribosome; assay type: biochemical; conditions: in vitro translation inhibition
[2] = test system: Mit13 hybrid ribosome (decoding A site of the human mitochondrial ribosome); assay type: biochemical; conditions: for Selectivity Mit 13: Mit13 over wt bacterial ribosome; for IC50 Mit13: in vitro translation inhibition, Mit13 hybrid ribosome
[3] = test system: A1555G mutant mitochondrial hybrid ribosome; assay type: biochemical, human; conditions: for Selectivity A1555G: A1555G over wt bacterial ribosome; for IC50 A1555G: in vitro translation inhibition, A1555G mutant mitochondrial hybrid ribosome
[4] = test system: Cyt14 hybrid ribosome (decoding A site of the human cytoplasmic ribosome); assay type: biochemical; conditions: for Selectivity Cyt14: Cyt14 over wt bacterial ribosome; for IC50 Cyt 14: in vitro translation inhibition, Cyt14 hybrid ribosome
MRSA = test: Antibacterial activity against reference strains: MRSA; assay type: cell-based; conditions: for Antibacterial activity (MIC) MRSA AG038: strain AG038; for Antibacterial activity (MIC) MRSA AG042: strain AG042 carries the AAC(6)’, ANT(4’,4’’) and APH(3’) genes; for MIC: Staphylococcus aureus, MRSA
K. pneumoniae = test: Antibacterial activity against reference strains: K. pneumoniae; assay type: cell-based; conditions: strain AG215
E. cloacae = test: Antibacterial activity against reference strains: E. cloacae; assay type: cell-based; conditions: for Antibacterial activity (MIC) E. cloacae AG290: strain AG290; for MIC: Enterobacter cloacae, read-out: Antibacterial activity (MIC) E. cloacae AG290
A. baumannii = test: Antibacterial activity against reference strains: A. baumannii; assay type: cell-based; conditions: strain AG225
E. coli = test: Antibacterial activity against reference strains: E. coli; conditions: for Antibacterial activity (MIC) E. coli AG003: strain AG003 carries the AAC(3) gene; for MIC: Escherichia coli
[5] = test system: E coli 70S ribosome (helix 44, A1408); test: Quantitative dimethyl sulfate footprinting of the 70S ribosome; assay type: binding; conditions: read-out: apparent Kd; DMS footprinting, % protection of N1 of A1408, E. coli 70S ribosome
[6] = test system: E. coli carrying specific resistance determinants; test: Activity against wild-type and engineered E. coli carrying specific AMEs or RMTs; assay type: cell-based; conditions: for MIC: Escherichia coli
P. aeruginosa = test: Antibacterial activity against reference strains: P. aeruginosa
[7] = test system: E. coli clinical isolates carrying two or more resistance determinants; test: Activity against E. coli clinical isolates with multiple resistance determinants; assay type: cell-based; conditions: Escherichia coli
[8] = test system: E. cloacae clinical isolates carrying two or more resistance determinants; assay type: cell-based; conditions: Enterobacter cloacae
[9] = read-out: Antibacterial activity (MIC) MRSA AG038
[10] = read-out: Antibacterial activity (MIC) MRSA AG042
[11] = read-out: Activity (MIC) E. coli AG006
[12] = read-out: Activity (MIC) E. coli AG007
[13] = read-out: Activity (MIC) E. coli AG008
[14] = read-out: Activity (MIC) E. coli AG009
[15] = read-out: Activity (MIC) E. coli AG036
[16] = read-out: Activity (MIC) E. coli AG103
[17] = read-out: Activity (MIC) E. coli AG105
[18] = read-out: Activity (MIC) E. coli AG166
[19] = read-out: Activity (MIC) E. coli isolate 201430298
[20] = read-out: Activity (MIC) E. coli isolate 201441114
[21] = read-out: Activity (MIC) E. coli isolate 2014251408
[22] = read-out: Activity (MIC) E. coli isolate 2014405344
[23] = read-out: Activity (MIC) E. cloacae isolate 201333207
[24] = read-out: Activity (MIC) E. cloacae isolate 201385168
[25] = read-out: Activity (MIC) E. cloacae isolate 201430601
[26] = read-out: Activity (MIC) E. cloacae isolate 201435487
[27] = read-out: Antibacterial activity (MIC) E. coli AG001
[28] = read-out: Antibacterial activity (MIC) E. coli AG003

| Compound | IC50 wt [1] [µg/mL] | Selectivity Mit 13 [2] | IC50 Mit13 [2] [µg/mL] | Selectivity A1555G [3] | IC50 A1555G [3] [µg/mL] | Selectivity Cyt14 [4] | IC50 Cyt 14 [4] [µg/mL] | Antibacterial activity (MIC) MRSA AG038 (MRSA) [µg/mL] | Antibacterial activity (MIC) MRSA AG042 (MRSA) [µg/mL] | Antibacterial activity (MIC) K. pneumoniae AG215 (K. pneumoniae) [µg/mL] | Antibacterial activity (MIC) E. cloacae AG290 (E. cloacae) [µg/mL] | Antibacterial activity (MIC) A. baumannii AG225 (A. baumannii) [µg/mL] | Antibacterial activity (MIC) E. coli AG003 (E. coli) [µg/mL] | MIC (MRSA; [9]) [µg/mL] | MIC (MRSA; [10]) [µg/mL] | MIC (E. cloacae) [µg/mL] | MIC [6, 11] [µg/mL] | MIC [6, 12] [µg/mL] | MIC [6, 13] [µg/mL] | MIC [6, 14] [µg/mL] | further results |
| --- | --- | --- | --- | --- | --- | --- | --- | --- | --- | --- | --- | --- | --- | --- | --- | --- | --- | --- | --- | --- | --- |
| NC[C@@H]1O[C@H](O[C@H]2[C@@H](O)[C@H](O[C@@H]3[C@@H](O)[C@H](N)C[C@H](N)[C@H]3O[C@H]3O[C@H](CO)C[C@H](O)[C@H]3N)O[C@@H]2CO)[C@H](N)[C@@H](O)[C@@H]1O [Compound 2, 4’-deoxy paromomycin] | 0.05 (≈ 0.0834 µM) | 1480 | 74 (≈ 123 µM) | 480 | 24 (≈ 40 µM) | 560 | 28 (≈ 46.7 µM) | 16 | 8 to 16 | 4 | 4 to 8 | 8 | 32 |  |  |  |  |  |  |  |  |
| CCOC1C(CO)OC(OC2C(N)CC(N)C(O)C2OC2OC(CO)C(OC3OC(CN)C(O)C(O)C3N)C2O)C(N)C1O (stereo not shown) [Compound 3] | 0.08 (≈ 0.124 µM) | 1075 | 86 (≈ 134 µM) | 1188 | 95 (≈ 148 µM) | 1100 | 88 (≈ 137 µM) | 8 to 16 | 8 to 16 | 8 | 8 | 16 to 32 | 32 |  |  |  |  |  |  |  | Kd [5]: 1.03 ± 0.2 µM; Activity (MIC) E. coli AG006 ([6]; strain AG006, WT): 8 to 16 µg/mL; Activity (MIC) E. coli AG007 ([6]; strain AG007, AAC(3)): 16 to 32 µg/mL; Activity (MIC) E. coli AG008 ([6]; strain AG008, ANT(2’’)): 8 µg/mL; Activity (MIC) E. coli AG009 ([6]; strain AG009, AAC(6’)): 16 µg/mL; Activity (MIC) E. coli AG036 ([6]; strain AG036, ANT(4′,4′′)): 8 to 16 µg/mL; Activity (MIC) E. coli AG103 ([6]; strain AG103, armA): ≥64 µg/mL; Activity (MIC) E. coli AG105 ([6]; strain AG105, AAC(2′)): 8 to 16 µg/mL; Activity (MIC) E. coli AG166 ([6]; strain AG166, APH(3′)): 64 µg/mL; Antibacterial activity (MIC) E. coli AG001 (E. coli; strain AG001): 16 µg/mL; Antibacterial activity (MIC) P. aeruginosa AG031 (P. aeruginosa; strain AG031 carries the APH(3’) gene): >64 µg/mL; Antibacterial activity (MIC) P. aeruginosa AG220 (P. aeruginosa; strain AG220 carries the APH(3’) gene): >64 µg/mL |
| CNC(C)C1CCC(N)C(OC2C(N)CC(N)C(OC3OCC(C)(O)C(NC)C3O)C2O)O1 (stereo not shown) [Gentamicin] | 0.02 (≈ 0.0419 µM) |  | 9 (≈ 18.8 µM) |  | 0.5 (≈ 1.05 µM) |  | 33 (≈ 69.1 µM) |  |  |  |  |  |  | 0.25 (≈ 0.523 µM) | 64 (≈ 134 µM) | 0.25 (≈ 0.523 µM) | 0.5 (≈ 1.05 µM) | 32 (≈ 67 µM) | 8 to 16 (≈ 16.8 to 33.5 µM) | 1 to 2 (≈ 2.09 to 4.19 µM) | MIC [6, 15]: 0.5 µg/mL (≈ 1.05 µM); MIC [6, 16]: > 128 µg/mL; MIC [6, 17]: 32 µg/mL (≈ 67 µM); MIC [6, 18]: 0.5 µg/mL (≈ 1.05 µM); MIC [7, 19]: 128 µg/mL (≈ 268 µM); MIC [7, 20]: 16 µg/mL (≈ 33.5 µM); MIC [7, 21]: 256 µg/mL (≈ 536 µM); MIC [7, 22]: > 256 µg/mL; MIC [8, 23]: 64 µg/mL (≈ 134 µM); MIC [8, 24]: > 256 µg/mL; MIC [8, 25]: 16 µg/mL (≈ 33.5 µM); MIC [8, 26]: 64 µg/mL (≈ 134 µM); MIC (E. coli; [27]): 1 to 2 µg/mL (≈ 2.09 to 4.19 µM); MIC (E. coli; [28]): 32 to 64 µg/mL (≈ 67 to 134 µM) |
| NC[C@H]1O[C@H](O[C@H]2[C@H](O)[C@@H](O[C@H]3O[C@H](CO)[C@@H](O)[C@H](N)[C@H]3O)[C@H](N)C[C@@H]2N)[C@H](N)C[C@@H]1O [Tobramycin] | 0.02 (≈ 0.0428 µM) | 750 | 15 (≈ 32.1 µM) | 25 | 0.5 (≈ 1.07 µM) | 1350 | 27 (≈ 57.8 µM) |  |  |  |  |  |  | 0.5 to 1 (≈ 1.07 to 2.14 µM) | ≥ 256 | 0.5 to 1 (≈ 1.07 to 2.14 µM) | 0.5 (≈ 1.07 µM) | 4 (≈ 8.56 µM) | 8 (≈ 17.1 µM) | 64 to 128 (≈ 137 to 274 µM) | MIC [6, 15]: 16 to 32 µg/mL (≈ 34.2 to 68.4 µM); MIC [6, 16]: > 128 µg/mL; MIC [6, 17]: 1 µg/mL (≈ 2.14 µM); MIC [6, 18]: 0.5 to 1 µg/mL (≈ 1.07 to 2.14 µM); MIC [7, 19]: 256 µg/mL (≈ 548 µM); MIC [7, 20]: 32 µg/mL (≈ 68.4 µM); MIC [7, 21]: 128 µg/mL (≈ 274 µM); MIC [7, 22]: > 256 µg/mL; MIC [8, 23]: 32 µg/mL (≈ 68.4 µM); MIC [8, 24]: > 256 µg/mL; MIC [8, 25]: 32 µg/mL (≈ 68.4 µM); MIC [8, 26]: 16 µg/mL (≈ 34.2 µM); MIC (E. coli; [27]): 1 to 2 µg/mL (≈ 2.14 to 4.28 µM); MIC (E. coli; [28]): 4 µg/mL (≈ 8.56 µM) |
